Source: US20100267561A1, “HERBICIDAL PYRIDAZINONE DERIVATIVES” (priority 2007, published 2010)

Experiments:
Format in all cases: in vivo
[1] = test system: Italian ryegrass (Lolium multiflorum); assay: Test B pre-/postemergence plant response
Procedure, shortened: (§1)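 Visual scoring from 0 (no effect) to 100 (complete control) against untreated controls was done 13 to 15 days after greenhouse treatment. Chemicals were formulated in a surfactant-containing non-phytotoxic solvent and applied to soil preemergence or to 1- to 4-leaf (2-18 cm) plants postemergence.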

[2] = test system: bermudagrass (Cynodon dactylon); assay: Test B pre-/postemergence plant response
Procedure, shortened: as §1

[3] = test system: catchweed bedstraw (Galium aparine); assay: Test B pre-/postemergence plant response; conditions: Preemergence; for Galium plant response rating: scale 0 to 100
Procedure, shortened: as §1

[4] = test system: giant foxtail (Setaria faberii); assay: Test B pre-/postemergence plant response
Procedure, shortened: as §1

[5] = test system: goosegrass (Eleusine indica); assay: Test B pre-/postemergence plant response
Procedure, shortened: as §1

[6] = test system: johnsongrass (Sorghum halepense); assay: Test B pre-/postemergence plant response
Procedure, shortened: as §1

kochia (Kochia scoparia) = assay: Test B pre-/postemergence plant response; conditions: for Kochia plant response rating: postemergence, 0-100 scale; for Plant response rating, Kochia: Postemergence
Procedure, shortened: as §1

[7] = test system: lambsquarters (Chenopodium album); assay: Test B pre-/postemergence plant response
Procedure, shortened: as §1

[8] = test system: large crabgrass (Digitaria sanguinalis); assay: Test B pre-/postemergence plant response
Procedure, shortened: as §1

[9] = test system: morningglory (Ipomoea coccinea); assay: Test B pre-/postemergence plant response
Procedure, shortened: as §1

[10] = test system: pigweed (Amaranthus retroflexus); assay: Test B pre-/postemergence plant response
Procedure, shortened: as §1

soybean (Glycine max) = assay: Test B pre-/postemergence plant response
Procedure, shortened: as §1

[11] = test system: velvetleaf (Abutilon theophrasti); assay: Test B pre-/postemergence plant response
Procedure, shortened: as §1

rice (Oryza sativa) = assay: Test B flooded paddy test plant response; conditions: Flood (flooded paddy test), scale 0 to 100, 0 no effect, 100 complete control
Procedure, shortened: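 Rice, umbrella sedge, ducksalad and barnyardgrass at 2-leaf stage; pots flooded to 3 cm, compounds applied into paddy water, depth held throughout. Greenhouse 13 to 15 days, then visual rating vs untreated controls on 0–100 scale (0 no effect, 100 complete control); dash means no test result.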

[12] = 8 g ai/ha, postemergence, 0-100 scale
[13] = 16 g ai/ha, postemergence, 0-100 scale
[14] = Postemergence, 31 g ai/ha, scale 0 to 100
[15] = Postemergence, 62 g ai/ha, scale 0 to 100, 0 no effect, 100 complete control
[16] = Preemergence, 31 g ai/ha, scale 0 to 100 (0 no effect, 100 complete control)
[17] = Preemergence, 62 g ai/ha, 0 to 100 scale, 0 no effect, 100 complete control
[18] = Preemergence, 8 g ai/ha, scale 0 to 100
[19] = Preemergence, 16 g ai/ha, scale 0 to 100
[20] = Postemergence, 16 g ai/ha, scale 0 to 100

CCCc1cc(-c2ccc(Cl)cc2)nn1-c1c(O)cnn(C)c1=O [Compound 76]
Ryegrass, Italian plant response rating [1, 12]: 65
Ryegrass, Italian plant response rating [1, 13]: 98
Plant response rating, Ryegrass, Italian [1, 14]: 100
Plant response rating, Ryegrass, Italian [1, 15]: 100
Plant response rating, Ryegrass, Italian [1, 16]: 95
Plant response rating, Ryegrass, Italian [1, 17]: 95
Ryegrass, Italian plant response rating [1, 18]: 75
Ryegrass, Italian plant response rating [1, 19]: 75
Bermudagrass plant response rating [2, 12]: 70
Plant response rating, Bermudagrass [2, 20]: 80
Plant response rating, Bermudagrass [2, 14]: 85
Plant response rating, Bermudagrass [2, 15]: 90
Bermudagrass plant response rating ([2]; Preemergence, 8 g ai/ha, scale 0 to 100 (0 no effect, 100 complete control)): 0
Bermudagrass plant response rating ([2]; Preemergence, 16 g ai/ha, scale 0 to 100 (0 no effect, 100 complete control)): 20
Plant response rating, Bermudagrass [2, 16]: 100
Plant response rating, Bermudagrass [2, 17]: 100
Plant response rating, Galium ([3]; 31 g ai/ha, scale 0 to 100 (0 no effect, 100 complete control)): 0
Plant response rating, Galium ([3]; 62 g ai/ha, 0 to 100 scale, 0 no effect, 100 complete control): 0
Galium plant response rating ([3]; 8 g ai/ha): 0
Galium plant response rating ([3]; 16 g ai/ha): 0
Foxtail, Giant plant response rating [4, 12]: 75
Plant response rating, Foxtail, Giant [4, 20]: 85
Plant response rating, Foxtail, Giant [4, 14]: 95
Plant response rating, Foxtail, Giant [4, 15]: 98
Plant response rating, Foxtail, Giant [4, 16]: 90
Plant response rating, Foxtail, Giant [4, 17]: 100
Foxtail, Giant plant response rating [4, 18]: 0
Foxtail, Giant plant response rating [4, 19]: 70
Goosegrass plant response rating [5, 12]: 20
Goosegrass plant response rating [5, 13]: 60
Plant response rating, Goosegrass [5, 14]: 70
Plant response rating, Goosegrass [5, 15]: 75
Plant response rating, Goosegrass [5, 16]: 80
Plant response rating, Goosegrass [5, 17]: 100
Goosegrass plant response rating [5, 18]: 20
Goosegrass plant response rating [5, 19]: 75
Johnsongrass plant response rating [6, 12]: 65
Johnsongrass plant response rating [6, 13]: 75
Plant response rating, Johnsongrass [6, 14]: 95
Plant response rating, Johnsongrass [6, 15]: 98
Plant response rating, Johnsongrass [6, 16]: 70
Plant response rating, Johnsongrass [6, 17]: 85
Johnsongrass plant response rating [6, 18]: 0
Johnsongrass plant response rating [6, 19]: 0
Kochia plant response rating (kochia (Kochia scoparia); 8 g ai/ha): 0
Kochia plant response rating (kochia (Kochia scoparia); 16 g ai/ha): 0
Plant response rating, Kochia (kochia (Kochia scoparia); 31 g ai/ha, scale 0 to 100): 0
Plant response rating, Kochia (kochia (Kochia scoparia); 62 g ai/ha, scale 0 to 100, 0 no effect, 100 complete control): 0
Lambsquarters plant response rating [7, 12]: 0
Lambsquarters plant response rating [7, 13]: 0
Plant response rating, Lambsquarters [7, 14]: 0
Plant response rating, Lambsquarters [7, 15]: 0
Plant response rating, Lambsquarters [7, 16]: 0
Plant response rating, Lambsquarters [7, 17]: 0
Lambsquarters plant response rating [7, 18]: 0
Lambsquarters plant response rating [7, 19]: 0
Crabgrass, Large plant response rating [8, 12]: 20
Plant response rating, Crabgrass, Large [8, 20]: 85
Plant response rating, Crabgrass, Large [8, 14]: 95
Plant response rating, Crabgrass, Large [8, 15]: 100
Plant response rating, Crabgrass, Large [8, 16]: 55
Plant response rating, Crabgrass, Large [8, 17]: 98
Crabgrass, Large plant response rating [8, 18]: 0
Crabgrass, Large plant response rating [8, 19]: 20
Morningglory plant response rating [9, 12]: 0
Morningglory plant response rating [9, 13]: 0
Plant response rating, Morningglory [9, 14]: 0
Plant response rating, Morningglory [9, 15]: 0
Plant response rating, Morningglory [9, 16]: 0
Plant response rating, Morningglory [9, 17]: 0
Morningglory plant response rating [9, 18]: 0
Morningglory plant response rating [9, 19]: 0
Pigweed plant response rating [10, 12]: 0
Pigweed plant response rating [10, 13]: 0
Plant response rating, Pigweed [10, 14]: 0
Plant response rating, Pigweed [10, 15]: 0
Plant response rating, Pigweed [10, 16]: 0
Plant response rating, Pigweed [10, 17]: 0
Pigweed plant response rating [10, 18]: 0
Pigweed plant response rating [10, 19]: 0
Soybean plant response rating (soybean (Glycine max); [12]): 0
Soybean plant response rating (soybean (Glycine max); [13]): 0
Plant response rating, Soybean (soybean (Glycine max); [14]): 0
Plant response rating, Soybean (soybean (Glycine max); [15]): 0
Plant response rating, Soybean (soybean (Glycine max); [16]): 0
Plant response rating, Soybean (soybean (Glycine max); [17]): 0
Soybean plant response rating (soybean (Glycine max); [18]): 0
Soybean plant response rating (soybean (Glycine max); [19]): 0
Velvetleaf plant response rating [11, 12]: 0
Velvetleaf plant response rating [11, 13]: 0
Plant response rating, Velvetleaf [11, 14]: 0
Plant response rating, Velvetleaf [11, 15]: 0
Plant response rating, Velvetleaf [11, 16]: 0
Plant response rating, Velvetleaf [11, 17]: 0
Velvetleaf plant response rating [11, 18]: 0
Velvetleaf plant response rating [11, 19]: 0
Plant response rating, Rice (rice (Oryza sativa); 62 g ai/ha): 0
Plant response rating, Rice (rice (Oryza sativa); 250 g ai/ha): 0
